# Assay results reported in US6440389B1, “Fluorescent agents for real-time measurement of organ function” (The General Hospital Corporation, priority 2000, dated 2002).
# Experiment: Fluorometric analysis, excitation and emission spectra
# Assay type: physicochemical
# Details: FIG. 4
# Method: For the synthesis of a nile blue-DTPA conjugate, 0.1 g of DTPA dianhydride (ccDPTA) was dissolved in 6 ml of dimethyl sulfoxide (DMSO) in a round bottom flask. Ninety mg of nile blue were dissolved in DMSO and 36 μL of triethyl amine were added, turning the solution purple. The nile blue solution was added drop wise to the solution of ccDTPA while stirring. The solution turned blue. Thirty-eight μL of […] (TEA) were added to the final mixture, turning the solution purple. After mixing, the mixture was heated to 60° C. and stirred for 2 hours. The reaction mixture was then loaded onto a silica gel column and eluted with acetone:ethylacetate. The fractions corresponding to the nile blue-DTPA conjugate were pooled and evaporated, yielding a magenta colored oil. The oil was rechromatographed on a second silica gel column using acetone as eluant. The nile blue-DTPA conjugated fractions were pooled and rotate-evaporated to give a magenta colored oil. […]
# The only group of chelating agents known to produce highly soluble and stable lanthanide chelates are the polyamino polyacetic acid analogs. […] The simplest initial approach was to study the fluorescence characteristics of the chelate between Eu and other already commercially available polyaminopoly bis (2-aminoethyl ether) acetic acids. […]
smiles,measurement,value
CC[N+](CC)=c1ccc2nc3c(cc(N)c4ccccc43)oc-2c1 [nile blue],emission fluorescence,695 nm
same,maximal excitation,approximately 390 nm
